One data set deals with fish embryos. The settings on record: 100µM bergapten; cited from earlier work.
The test system of data set [1] is Lepeophtheirus salmonis sea lice.
In the next data set the test system is Argulus. The settings on record: for Argulus detachment from goldfish and koi carp: after two hours.
Data set [2] deals with Lepeophtheirus salmonis sea lice. In words: whole plant or invertebrate. The note with it: 24 h.

The text below walks through data of patent EP3452027B1, “USE OF […] TREAT SEA LICE” (priority 2016, dated 2017).

In brackets after ≈: the same amount, converted by molar mass. Like-named read-outs stand apart in the source and are kept apart here.

As to `COc1c2ccoc2cc2oc(=O)ccc12` [bergapten, 5-methoxypsoralen], in the data set on fish embryos, the fish embryos killed entry was “one third” and the “remaining viable embryos with defects in anterior-posterior patterning” value is given as “half”.

The term EC50 denotes the concentration giving half of the maximal effect. What is called EC90 is the concentration at which the effect reaches the 90% level. The LC50 is the concentration lethal to half of the exposed cells or organisms. For `C=C(C)[C@@H]1CCC2=CC(=O)C[C@@H](C)[C@]2(C)C1` [nootkatone], the “concentrations at which no viable sea lice were observed” value in data set [1] (24 hours post-exposure, microscopic observation) was no less than 38 mg/L. Besides, the “Males EC90” value in data set [1] (adult male L. salmonis, 24 hours post exposure) came out at 24.27 µg/mL. The “Females LC50” value in data set [1] (female, Lepeophtheirus salmonis (sea louse), in vivo) was found to be 9.70 µg/mL. The “Males LC50” value in data set [1] (male, Lepeophtheirus salmonis (sea louse), in vivo) was found to be 16.40 µg/mL. In addition, the “Argulus detachment from goldfish and koi carp” value in the data set on Argulus (2ppm nootkatone in tap water) and with Argulus (6ppm nootkatone in tap water) was “no parasites could be seen” each time. In addition, the “mortality of Argulus” value with Argulus (in vivo) is listed as 100%. The EC50 is 9.17 µg/mL (≈ 42 µM) in data set [2] (read-out: Females EC50) and 11.5 µg/mL (≈ 52.9 µM) in data set [2] (read-out: Males EC50). In addition, the 90% effect concentration (EC90) in data set [2] (read-out: Females EC90, adult female (pre-ovigerous) L. salmonis, 24 hours post exposure) was 13.4 µg/mL (≈ 61.5 µM); in data set [2] (read-out: Males EC90, adult male L. salmonis, 24 hours post exposure), 24.3 µg/mL (≈ 111 µM). Moreover, the results for the LC50 in data set [2] (read-out: Females LC50), in data set [2] (read-out: LC50 for the total sea lice population (dose that would kill 50% of the total population)) and in data set [2] (read-out: Males LC50) were 9.69 µg/mL (≈ 44.4 µM), 13.5 µg/mL (≈ 62 µM) and 16.4 µg/mL (≈ 75.1 µM), respectively.
